In patent publication US20200325518A1, “Systems and Methods for Metabolic Assessment Utilizing 1-Methoxy-PMS Field” (priority 2019, published 2020):

System: E. coli
Assay: CLSI overnight reference method MIC of antimicrobials against E. coli strains
Assay type: cell-based
Settings: for MIC (CLSI Ref): unit assumed
[1] = E. coli strain Clinical Sample 1
[2] = E. coli strain Clinical Sample 2
[3] = E. coli strain Clinical Sample 4
[4] = E. coli strain Clinical Sample 5
[5] = E. coli strain Clinical Sample 6
[6] = E. coli strain Clinical Sample 7
[7] = E. coli strain Clinical Sample 8
[8] = E. coli strain Clinical Sample 9
[9] = E. coli strain Clinical Sample 10
[10] = E. coli strain Clinical Sample 11
[11] = E. coli strain Clinical Sample 12
[12] = E. coli strain Clinical Sample 13

Compound	MIC (CLSI Ref) (E. coli strain BEI 4.097)	MIC (CLSI Ref) (E. coli strain CDC Carba36)	MIC (CLSI Ref) [1]	MIC (CLSI Ref) [2]	MIC (CLSI Ref) [3]	MIC (CLSI Ref) [4]	MIC (CLSI Ref) [5]	MIC (CLSI Ref) [6]	MIC (CLSI Ref) [7]	MIC (CLSI Ref) [8]	MIC (CLSI Ref) [9]	MIC (CLSI Ref) [10]	MIC (CLSI Ref) [11]	MIC (CLSI Ref) [12]	CLSI breakpoint interpretation [2]
Penicillin	16 µg/mL	> 16 µg/mL	> 16 µg/mL	> 16 µg/mL	> 16 µg/mL	> 16 µg/mL	16 µg/mL	> 16 µg/mL	> 16 µg/mL	> 16 µg/mL	> 16 µg/mL	> 16 µg/mL	> 16 µg/mL	16 µg/mL	–
CN(C)[C@@H]1C(=O)C(C(N)=O)=C(O)[C@@]2(O)C(=O)C3=C(O)c4c(O)cccc4[C@@](C)(O)[C@H]3C[C@@H]12 [TET, Tetracycline]	32 µg/mL	8 µg/mL	4 µg/mL	> 32 µg/mL	4 µg/mL	> 32 µg/mL	2 µg/mL	4 µg/mL	8 µg/mL	4 µg/mL	4 µg/mL	4 µg/mL	4 µg/mL	4 µg/mL	R
C[C@@H](O)[C@H]1C(=O)N2C(C(=O)O)=C(S[C@@H]3CN[C@H](C(=O)N(C)C)C3)[C@H](C)[C@H]12 [MEM, Meropenem]	< 0.06 µg/mL	< 0.06 µg/mL	< 0.06 µg/mL	< 0.06 µg/mL	< 0.06 µg/mL	< 0.06 µg/mL	< 0.06 µg/mL	< 0.06 µg/mL	< 0.06 µg/mL	< 0.06 µg/mL	< 0.06 µg/mL	< 0.06 µg/mL	< 0.06 µg/mL	< 0.06 µg/mL	–
C[C@@H](O)[C@H]1C(=O)N2C(C(=O)O)=C(SCCN=CN)C[C@H]12 [IPM, Imipinem]	< 0.12 µg/mL	< 0.12 µg/mL	< 0.12 µg/mL	< 0.12 µg/mL	0.25 µg/mL	< 0.12 µg/mL	< 0.12 µg/mL	< 0.12 µg/mL	0.5 µg/mL	< 0.12 µg/mL	< 0.12 µg/mL	0.25 µg/mL	< 0.12 µg/mL	< 0.12 µg/mL	–
Trimethoprim-Sulfamethoxazole [SXT]	< 0.5 µg/mL	< 0.5 µg/mL	< 0.5 µg/mL	4 µg/mL	> 32 µg/mL	> 32 µg/mL	2 µg/mL	> 32 µg/mL	< 0.5 µg/mL	> 32 µg/mL	> 32 µg/mL	< 0.5 µg/mL	< 0.5 µg/mL	< 0.5 µg/mL	R
CO/N=C(\C(=O)N[C@@H]1C(=O)N2C(C(=O)O)=C(CSc3nc(=O)c(=O)[nH]n3C)CS[C@H]12)c1csc(N)n1 [CRO, Ceftriaxone]	< 0.12 µg/mL	1 µg/mL	< 0.12 µg/mL	2 µg/mL	< 0.12 µg/mL	< 0.12 µg/mL	< 0.12 µg/mL	< 0.12 µg/mL	64 µg/mL	> 64 µg/mL	< 0.12 µg/mL	< 0.12 µg/mL	< 0.12 µg/mL	< 0.12 µg/mL	I
C[C@H]1COc2c(N3CCN(C)CC3)c(F)cc3c(=O)c(C(=O)O)cn1c23 [LVX, Levofloxacin]	< 0.06 µg/mL	> 8 µg/mL	< 0.06 µg/mL	< 0.06 µg/mL	> 8 µg/mL	> 8 µg/mL	< 0.06 µg/mL	< 0.06 µg/mL	< 0.06 µg/mL	> 8 µg/mL	8 µg/mL	< 0.06 µg/mL	0.5 µg/mL	< 0.06 µg/mL	–
